In patent publication US20230151025A1, “SUBSTITUTED THIAZOLOPYRIDINES, SALTS THEREOF AND THEIR USE AS HERBICIDALLY ACTIVE SUBSTANCES” (Bayer Aktiengesellschaft, priority 2020, published 2023):

Key:
Format in all cases: in vivo
Setaria viridis (SETVI) [1] = test: Herbicidal pre-emergence action (A), 1280 g/ha; details: visual grading after ca. 3 weeks vs untreated controls
Source text: (§1) ABUTH: Abutilon theophrasti AGSTE: Agrostis tenuis ALOMY: Alopecurus myosuroides AMARE Amaranthus retroflexus DIGSA: Digitaria sanguinalis ECHCG: Echinochloa crus-galli KCHSC: Kochia scoparia LOLRI: Lolium rigidum MATIN: Matricaria inodora POAAN: Poa annua POLCO: Polygonum convolvulus SETVI: Setaria viridis STEME: Stellaria media VERPE: Veronica persica VIOTR: Viola tricolor
(§2) Seeds of mono- and dicotyledonous weed plants were sown in plastic pots (double sowings with one species of mono- and one species of dicotyledonous weed plants per pot), in sandy loam, and covered with soil. The compounds according to the invention, formulated in the form of wettable powders (WP) or as emulsifiable concentrates (EC), were applied to the surface of the covering soil as aqueous suspension or emulsion, with the addition of 0.5% of an additive, at an application rate of 600 l of water per hectare (converted). Following treatment, the pots were placed in a greenhouse and kept under optimum growth conditions for the test plants. The visual grading of the damage to the test plants was carried out after ca. 3 weeks in comparison to untreated controls (herbicidal effect in percent (%): 100% effect=plants have died off, 0% effect=as control plants).
(§3) Tables A1 to A12, below, show the effects of selected compounds of the general formula (I) according to table 1 on various harmful plants and an application rate corresponding to 1280 g/ha obtained by the experimental procedure mentioned above.

[2] = tested on: Amaranthus retroflexus (AMARE); test: Herbicidal pre-emergence action (A), 1280 g/ha; details: visual grading after ca. 3 weeks vs untreated controls
Source text: as §1, §2, §3

Poa annua (POAAN) [3] = test: Herbicidal pre-emergence action (A), 1280 g/ha; details: visual grading after ca. 3 weeks vs untreated controls, 100% = plants have died off, 0% = as control plants
Source text: as §1, §2, §3

[4] = tested on: Digitaria sanguinalis (DIGSA); test: Herbicidal pre-emergence action (A), 1280 g/ha; details: visual grading after ca. 3 weeks vs untreated controls, 100% = plants have died off, 0% = as control plants
Source text: as §1, §2, §3

[5] = tested on: Echinochloa crus-galli (ECHCG); test: Herbicidal pre-emergence action (A), 1280 g/ha; details: visual grading after ca. 3 weeks vs untreated controls, 100% = plants have died off, 0% = as control plants
Source text: as §1, §2, §3

Stellaria media (STEME) [6] = test: Herbicidal post-emergence action (B), 1280 g/ha
Source text: as §1
(§4) Seeds of mono- and dicotyledonous weed plants were placed in plastic pots in sandy loam soil (doubly sown with in each case one species of mono- or dicotyledonous weed plants per pot), covered with soil and cultivated in a greenhouse under controlled growth conditions. 2 to 3 weeks after sowing, the test plants were treated at the one-leaf stage. The compounds of the invention, formulated in the form of wettable powders (WP) or as emulsion concentrates (EC), were applied onto the green parts of the plants as aqueous suspension or emulsion with addition of 0.5% additive at a water application rate of 600 liters per hectare (converted). After the test plants had been kept in the greenhouse under optimum growth conditions for about 3 weeks, the activity of the preparations was rated visually in comparison to untreated controls. For example, 100% activity=the plants have died, 0% activity=like control plants.
(§5) Tables B1 to B12, below, show the effects of selected compounds of the general formula (I) according to table 1 on various harmful plants and an application rate corresponding to 1280 g/ha obtained by the experimental procedure mentioned above.

[7] = tested on: Kochia scoparia (KCHSC; Bassia scoparia); test: Herbicidal post-emergence action (B), 1280 g/ha
Source text: as §1, §4, §5

[8] = tested on: Amaranthus retroflexus (AMARE); test: Herbicidal post-emergence action (B), 1280 g/ha; details: rated visually after about 3 weeks vs untreated controls
Source text: as §1, §4, §5

[9] = tested on: Digitaria sanguinalis (DIGSA); test: Herbicidal post-emergence action (B), 1280 g/ha; details: rated visually after about 3 weeks vs untreated controls
Source text: as §1, §4, §5

[10] = tested on: Alopecurus myosuroides (ALOMY); test: Herbicidal pre-emergence action (A), 1280 g/ha; details: visual grading after ca. 3 weeks vs untreated controls, 100% = plants have died off, 0% = as control plants
Source text: as §1, §2, §3

Stellaria media (STEME) [11] = test: Herbicidal pre-emergence action (A), 1280 g/ha; details: visual grading after ca. 3 weeks vs untreated controls
Source text: as §1, §2, §3

Veronica persica (VERPE) [12] = test: Herbicidal pre-emergence action (A), 1280 g/ha; details: visual grading after ca. 3 weeks vs untreated controls
Source text: as §1, §2, §3

Veronica persica (VERPE) [13] = test: Herbicidal post-emergence action (B), 1280 g/ha
Source text: as §1, §4, §5

[14] = tested on: Abutilon theophrasti (ABUTH); test: Herbicidal post-emergence action (B), 1280 g/ha; details: rated visually after about 3 weeks vs untreated controls
Source text: as §1, §4, §5

Lolium rigidum (LOLRI) = test: Herbicidal pre-emergence action (A), 1280 g/ha; details: visual grading after ca. 3 weeks vs untreated controls, 100% = plants have died off, 0% = as control plants
Source text: as §1, §2, §3

[15] = tested on: Kochia scoparia (KCHSC; Bassia scoparia); test: Herbicidal pre-emergence action (A), 1280 g/ha; details: visual grading after ca. 3 weeks vs untreated controls
Source text: as §1, §2, §3

[16] = tested on: Matricaria inodora (MATIN); test: Herbicidal pre-emergence action (A), 1280 g/ha; details: visual grading after ca. 3 weeks vs untreated controls
Source text: as §1, §2, §3

Setaria viridis (SETVI) [17] = test: Herbicidal post-emergence action (B), 1280 g/ha; details: rated visually after about 3 weeks vs untreated controls
Source text: as §1, §4, §5

[18] = tested on: Alopecurus myosuroides (ALOMY); test: Herbicidal post-emergence action (B), 1280 g/ha; details: rated visually after about 3 weeks vs untreated controls
Source text: as §1, §4, §5

Poa annua (POAAN) [19] = test: Herbicidal post-emergence action (B), 1280 g/ha; details: rated visually after about 3 weeks vs untreated controls
Source text: as §1, §4, §5

[20] = tested on: Echinochloa crus-galli (ECHCG); test: Herbicidal post-emergence action (B), 1280 g/ha; details: rated visually after about 3 weeks vs untreated controls
Source text: as §1, §4, §5

Setaria viridis (SETVI) [21] = test: Herbicidal pre-emergence action (C), 320 g/ha; details: ca. 3 weeks
Source text: as §1
Seeds of mono- and dicotyledonous weed plants and crop plants were sown, in plastic or organic planting pots, in sandy loam and covered with soil. The compounds according to the invention, formulated in the form of wettable powders (WP) or as emulsifiable concentrates (EC), were applied to the surface of the covering soil as aqueous suspension or emulsion, with the addition of 0.5% of an additive, at an application rate of 600 l of water/ha (converted).
Following treatment, the pots were placed in a greenhouse and kept under optimum growth conditions for the test plants. The visual grading of the damage to the test plants was carried out after ca. 3 weeks in comparison to untreated controls (herbicidal effect in percent (%): 100% effect=plants have died off, 0% effect=as control plants).
Tables C1 to C13 below show the effects of selected compounds of the general formula (I) according to table 1 on various harmful plants and an application rate corresponding to 320 g/ha obtained by the experimental procedure mentioned above.

Structure (SMILES) | herbicidal effect SETVI (Setaria viridis (SETVI) [1]) [%] | herbicidal effect AMARE [2] [%] | POAAN, herbicidal effect in percent (%) (Poa annua (POAAN) [3]) | DIGSA, herbicidal effect in percent (%) [4] [%] | ECHCG, herbicidal effect in percent (%) [5] [%] | herbicidal effect STEME (Stellaria media (STEME) [6]) [%] | herbicidal effect KCHSC [7] [%] | herbicidal activity AMARE [8] [%] | herbicidal activity DIGSA [9] [%] | ALOMY, herbicidal effect in percent (%) [10] [%] | herbicidal effect STEME (Stellaria media (STEME) [11]) [%] | herbicidal effect VERPE (Veronica persica (VERPE) [12]) [%] | herbicidal effect VERPE (Veronica persica (VERPE) [13]) [%] | herbicidal activity ABUTH [14] [%] | LOLRI, herbicidal effect in percent (%) (Lolium rigidum (LOLRI)) | herbicidal effect KCHSC [15] [%] | herbicidal effect MATIN [16] [%] | herbicidal activity SETVI (Setaria viridis (SETVI) [17]) [%] | herbicidal activity ALOMY [18] [%] | herbicidal activity POAAN (Poa annua (POAAN) [19]) [%] | further results
Fc1ccc(-c2ccc3scnc3n2)cc1 [Example I-074, 5-(4-fluorophenyl)thiazolo[4,5-b]pyridine] | 100 | 90 | 100 | 100 | 100 | 90 | 90 | 90 | 100 |  |  |  |  |  |  |  |  |  |  |  | 
CCc1cc2sc(S)nc2nc1-c1ccccc1F [Example I-165] | 100 | 90 | 100 |  |  |  | 90 |  | 100 | 90 | 90 | 90 | 90 |  |  |  |  |  |  |  | 
Cc1cc2sc([S+](C)[O-])nc2nc1-c1ccccc1 (centres unmarked) [Example I-092] |  | 90 | 90 |  |  |  | 100 | 100 | 100 |  | 90 | 90 | 90 | 90 |  |  |  |  |  |  | 
Cc1cc2sc(S)nc2nc1-c1cccc(F)c1 [Example I-159, 5-(3-fluorophenyl)-6-methyl-thiazolo[4,5-b]pyridine-2-thiol] | 90 |  |  |  |  |  | 90 |  | 100 |  |  |  |  | 90 |  |  |  |  |  |  | 
Fc1cc(F)c(-c2nc3ncsc3cc2Cl)c(F)c1 [Example I-035] | 100 | 90 | 100 |  | 100 |  | 90 | 100 |  | 90 | 90 | 90 | 90 | 90 | 100 | 90 | 90 | 90 | 90 | 90 | herbicidal activity ECHCG [20]: 90%
CCc1cc2scnc2nc1C1=CCCCC1 [Example I-145] | 100 | 100 | 100 | 100 | 100 | 100 | 90 | 100 | 100 | 100 | 90 | 100 | 100 |  | 100 | 90 | 90 |  | 100 |  | herbicidal effect SETVI (Setaria viridis (SETVI) [21]): 90%; herbicidal activity ECHCG [20]: 100%
Cc1nc2nc(-c3ccccc3F)c(C)cc2s1 [Example I-001] | 100 |  |  |  | 100 |  |  | 90 |  |  | 90 |  |  |  |  |  | 90 | 90 |  |  | 
CCc1cc2scnc2nc1-c1ccccc1C(F)(F)F [Example I-049] | 100 | 90 | 100 | 90 | 100 | 90 | 100 | 100 | 90 | 100 | 100 | 100 | 90 |  | 100 | 100 | 90 |  |  | 100 | 
CCc1cc2scnc2nc1C12CCCCC1O2 (centres unmarked) [Example I-152] | 100 | 90 | 100 | 100 | 100 |  | 90 | 100 |  |  | 90 | 90 | 100 | 90 | 100 | 100 | 90 |  | 100 | 100 | 
Cc1cccc(F)c1-c1nc2ncsc2cc1Br [Example I-088] | 100 | 90 | 100 |  | 100 | 100 | 100 | 100 |  | 100 | 90 |  | 100 | 90 | 100 | 90 | 90 | 90 |  |  | 
